Source: article PMC9237807 (Pharmacology Research & Perspectives, 2022)

What was measured:
[1] = target: T1, human β1‐adrenoceptor (Homo sapiens, UniProt P08588); test: [3H]-DHA association kinetics; type: binding; details: human β1AR, 37°C
[2] = tested on: human β1‐adrenoceptors; test: Simulated association and dissociation of β-blockers from kinetic parameters; details: 30 × K d (β1), free ligand removed at 5 min
[3] = tested on: human β2‐adrenoceptors; test: as above; details: 30 × K d (β1), free ligand removed at 5 min
[4] = target: T1, human β1‐adrenoceptor; test: [3H]-DHA competition kinetic binding assay; details: for koff / kon: human β1AR, CHO membranes, HBSS + 100 μM GTP, 37°C, ~3 nM [3H]-DHA
[5] = target: T1, human β1‐adrenoceptor; test: [3H]-DHA equilibrium competition binding
[6] = global fit, 3 radioligand concentrations

T1 sequence (P08588 whole entry): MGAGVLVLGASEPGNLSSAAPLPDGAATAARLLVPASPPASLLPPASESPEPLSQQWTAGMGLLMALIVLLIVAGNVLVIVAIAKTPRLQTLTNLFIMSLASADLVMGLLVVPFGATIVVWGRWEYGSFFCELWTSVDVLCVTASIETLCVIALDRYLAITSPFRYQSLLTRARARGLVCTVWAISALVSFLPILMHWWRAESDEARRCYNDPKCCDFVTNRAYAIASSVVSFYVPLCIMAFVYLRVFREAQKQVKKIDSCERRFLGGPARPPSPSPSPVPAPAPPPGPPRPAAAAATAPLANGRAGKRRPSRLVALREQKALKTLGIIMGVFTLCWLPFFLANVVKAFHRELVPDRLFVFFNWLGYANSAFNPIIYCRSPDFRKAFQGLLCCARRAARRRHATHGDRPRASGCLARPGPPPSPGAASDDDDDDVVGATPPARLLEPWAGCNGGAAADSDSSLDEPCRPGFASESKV

| Molecule | Kd [4] | koff [4] | kon [4] | Ki [5] | other results |
| --- | --- | --- | --- | --- | --- |
| 1‐[4,6‐propyl‐^3H]dihydroalprenolol [[^3H]‐DHA] | – | – | – | – | k off of radioligand [1, 6]: 0.00767 ± 0.0005 s⁻¹; k on of radioligand [1, 6]: 5.28 ± 0.48 × 10^8 M^−1 min^−1; Kd ([1]; read-out: K d of radioligand, from the kinetic fit): 0.94 nM |
| CC(C)NC[C@H](O)COc1ccc(CC(N)=O)cc1 [Atenolol, (S)‐(−) atenolol] | – | – | – | – | time until receptor binding is fully reversed (simulation) ([2]; β1 and β2 adrenoceptors simulated): ≤ 5 min |
| CC(C)NCC(O)COc1ccc(COCCOC(C)C)cc1 (centres unmarked) [Bisoprolol, bisoprolol hemifumarate] | – | – | – | – | time for full dissociation from the β2‐adrenoceptor (simulation) [3]: a matter of seconds; time for full dissociation from the β1‐adrenoceptor (simulation) [2]: approximately 40 min |
| CC(C)(Cc1c[nH]c2ccccc12)NCC(O)COc1ccccc1C#N (centres unmarked) [Bucindolol] | 0.1 ± 0.0004 nM | 0.00183 s⁻¹ | 1.85e+07 M⁻¹ s⁻¹ | 0.269 nM | – |
| CC(C)(C)NCC(O)COc1cccc2c1CC(O)C(O)C2 (centres unmarked) [Nadolol, nadolol] | 22.4 nM | 0.00283 ± 0.0005 s⁻¹ | 7.68 ± 0.79 × 10^6 M^−1 min^−1 | 33.9 nM | – |
